# Source: US9675579B2, “Tetrahydrocannabivarin for use in the treatment of nausea and vomiting” (GW Pharma Limited, priority 2013, dated 2017)
# “Also recorded” adds a separate entry of the source. Read-outs that look alike come from different tables or passages of the source.
# Key:
# Sprague-Dawley rats [1] = experiment: Potentiation or attenuation of LiCl-induced conditioned gaping (Example 2); type: in vivo, rat; details: for LiCl-induced conditioned gaping reactions relative to group VEH: rats, drug-free test 72 h later
# Description: Animals and Drugs and Materials were as described in Example 1 above.
# Following recovery from intraoral cannulation surgery, the rats received the adaptation trial to the TR test as described in Example 1 above. On the day of conditioning (saccharin palatability test), the rats were injected with VEH (n=10), 2.5 mg/kg SR (n=10), 2.5 mg/kg THC (n=6), 10 mg/kg THC (n=7), 2.5 mg/kg THCV (n=10) or 10 mg/kg THCV (n=6), 2.5 mg/kg CBDV (n=10) or 200 mg/kg CBDV (n=13). Thirty min later, each rat was intraorally infused with 0.1% saccharin solution while their orofacial responses were video recorded from the mirror beneath the chamber. Immediately following the 2 min intraoral infusion of saccharin, the rats were injected with 20 ml/kg or 0.15 M LiCl.
# Seventy-two hours later, the rats received a drug-free test trial, during which they received a 2 min intraoral infusion of 0.1% saccharin solution and the frequency of gaping was measured. The videotapes were later scored (at 1/2 speed) by an observer blind to the experimental conditions for the hedonic reaction of tongue protrusions (at conditioning and testing). As well, to determine other non-specific effects of the drug during conditioning, the conditioning tapes were scored for bouts of active locomotion (forward movement of paws on the floor of the cage).
# rodent = details: cited from earlier work; for suppression of toxin-induced conditioned gaping: rodent model of conditioned nausea
# Sprague-Dawley rats [2] = experiment: Conditioned gaping to saccharin paired with the compound (Example 1)
# Description: Naïve male Sprague-Dawley rats, obtained from Charles River Laboratories (St Constant, Quebec) were single-housed in shoebox cages in the colony room at an ambient temperature of 21° C. with a 12/12 light/dark schedule (lights off at 8 AM) and maintained on ad-libitum food and water.
# Drugs and Materials: All cannabinoid compounds were prepared in a vehicle (VEH) of ethanol/Cremophor (Sigma)/saline (SAL; 1:1:18) and administered intraperitonally (i.p.).
# SR was prepared at 2.5, 10 and 20 mg/kg and administered at a volume of 2 ml/kg. CBDV was prepared at 2.5 and 10 mg/kg and administered at a volume of 2 ml/kg. A high dose of CBDV was prepared at 200 mg/kg and administered at a volume 10 ml/kg. THCV was prepared at 2.5, 10 and 20 mg/kg and administered at a volume of 2 ml/kg.
# Procedures: Rats were implanted with intraoral cannulae under isofluorane anesthesia. […]
# Seventy two hours after the conditioning trial, the rats were returned to the TR chamber and intraorally infused with 0.1% saccharin solution and their orofacial reactions were video recorded with the feed from the video camera fire-wired into a computer. The video tapes are later scored (at 1/2 speed) by a trained observer blind to the experimental conditions for the behaviour of gaping (large openings of the mouth and jaw, with lower incisors exposed).
# CB1 receptor [3] = biological target: CB1 receptor (Homo sapiens, UniProt P21554); details: in vitro, Thomas et al., 2005; cited from earlier work
# Chain of CB1 receptor (Homo sapiens, UniProt P21554) (P21554 whole entry): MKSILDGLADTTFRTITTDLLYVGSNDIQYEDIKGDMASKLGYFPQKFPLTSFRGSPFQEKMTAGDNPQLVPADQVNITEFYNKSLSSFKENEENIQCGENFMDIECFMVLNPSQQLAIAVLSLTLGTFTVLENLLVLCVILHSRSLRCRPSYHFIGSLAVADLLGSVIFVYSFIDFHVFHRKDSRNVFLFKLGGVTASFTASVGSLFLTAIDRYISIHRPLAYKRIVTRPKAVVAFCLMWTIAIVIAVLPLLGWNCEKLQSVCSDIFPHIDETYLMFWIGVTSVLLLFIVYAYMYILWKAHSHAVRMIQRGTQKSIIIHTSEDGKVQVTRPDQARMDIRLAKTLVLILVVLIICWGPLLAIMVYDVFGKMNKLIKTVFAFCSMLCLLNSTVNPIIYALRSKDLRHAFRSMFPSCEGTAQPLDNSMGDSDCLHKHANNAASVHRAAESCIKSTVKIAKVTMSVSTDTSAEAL
# CB2 receptor = CB2 receptor (Homo sapiens, UniProt P34972); details: in vitro, Thomas et al., 2005; cited from earlier work
# Chain of CB2 receptor (P34972 whole entry): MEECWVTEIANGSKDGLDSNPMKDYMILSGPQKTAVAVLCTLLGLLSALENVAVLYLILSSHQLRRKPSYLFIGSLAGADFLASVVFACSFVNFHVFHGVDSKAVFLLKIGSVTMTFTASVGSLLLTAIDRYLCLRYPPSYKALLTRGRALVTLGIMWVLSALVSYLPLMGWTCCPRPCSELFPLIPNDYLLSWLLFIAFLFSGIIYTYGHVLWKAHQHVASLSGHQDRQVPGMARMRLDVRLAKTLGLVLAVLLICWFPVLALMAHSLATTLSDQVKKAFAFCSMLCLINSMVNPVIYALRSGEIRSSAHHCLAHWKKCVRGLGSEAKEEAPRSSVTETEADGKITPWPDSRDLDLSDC
# CB1 receptor [4] = biological target: CB1 receptor (Mus musculus, UniProt P47746); details: low doses (<3 mg/kg), Pertwee et al., 2007; cited from earlier work
# Chain of CB1 receptor (Mus musculus, UniProt P47746) (P47746 whole entry): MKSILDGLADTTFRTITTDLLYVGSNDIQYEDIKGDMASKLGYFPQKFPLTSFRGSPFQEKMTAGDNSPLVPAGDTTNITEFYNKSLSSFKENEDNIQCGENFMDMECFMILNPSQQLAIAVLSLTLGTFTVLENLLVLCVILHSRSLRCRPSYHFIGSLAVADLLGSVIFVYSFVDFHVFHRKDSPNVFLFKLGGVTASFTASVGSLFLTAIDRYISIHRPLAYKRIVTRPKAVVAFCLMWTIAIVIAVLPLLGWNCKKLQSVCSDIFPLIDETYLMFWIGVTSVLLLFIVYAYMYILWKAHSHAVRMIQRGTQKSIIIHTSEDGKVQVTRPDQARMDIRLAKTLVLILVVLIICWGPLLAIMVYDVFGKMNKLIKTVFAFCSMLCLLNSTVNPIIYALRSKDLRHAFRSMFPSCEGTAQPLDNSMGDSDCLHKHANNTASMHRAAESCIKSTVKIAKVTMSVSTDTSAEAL
# [5] = 2.5 mg/kg i.p. 30 min before saccharin-LiCl pairing
smiles,measurement,setting,value
"CCCCCc1cc(O)c2c(c1)OC(C)(C)[C@@H]1CCC(C)=C[C@@H]21 [THC, tetrahydrocannabinol]",LiCl-induced conditioned gaping reactions relative to group VEH,Sprague-Dawley rats [1]; [5],significantly attenuated the LiCl-induced gaping reactions
same,LiCl-induced conditioned gaping reactions relative to group VEH,Sprague-Dawley rats [1]; 10 mg/kg i.p. 30 min before saccharin-LiCl pairing,significantly attenuated the LiCl-induced gaping reactions
same,suppression of toxin-induced conditioned gaping,rodent; 0.5 mg/kg,suppress toxin-induced conditioned gaping
"CCCc1cc(O)c2c(c1)OC(C)(C)[C@@H]1CCC(C)=C[C@@H]21 [THCV, tetrahydrocannabivarin]",conditioned gaping reactions (nausea-like reactions) elicited by 0.1% saccharin previously paired with the compound,"Sprague-Dawley rats [2]; rats, i.p., all doses tested (SR 10, 20; AM251 10; THCV 10, 20; CBDV 10, 200 mg/kg), drug-free test 72 h after conditioning, vs VEH and other groups",did not produce apparent inverse agonist properties; also recorded: neither CBDV (10 or 200 mg/kg) nor THCV (10 or 20 mg/kg) produced the nausea-like profile of conditioned gaping
same,human equivalent dose of the dose that blocked LiCl-induced nausea,"Sprague-Dawley rats [1]; calculated from the rat dose, Km rat 6, Km human 37",greater than 0.4 mg/kg
same,dose that blocked LiCl-induced nausea,Sprague-Dawley rats [1]; in rats,greater than 2.5 mg/kg
same,LiCl-induced conditioned gaping reactions relative to group VEH,Sprague-Dawley rats [1]; [5],marginally attenuated LiCl-induced gaping reactions
same,LiCl-induced conditioned gaping reactions relative to group VEH,"Sprague-Dawley rats [1]; 10 mg/kg i.p. 30 min before saccharin-LiCl pairing, 10 mg/kg",no gaping reactions; also recorded: eliminated LiCl-induced nausea
same,action at the CB1 receptor,CB1 receptor [3],acts as a CB1 and CB2 receptor antagonist
same,action at the CB2 receptor,CB2 receptor,acts as a CB1 and CB2 receptor antagonist
same,action at the CB1 receptor in vivo,CB1 receptor [4],act as a CB1 receptor antagonist
"C=C(C)[C@@H]1CCC(C)=C[C@H]1c1c(O)cc(CCCCC)cc1O [CBD, cannabidiol]",suppression of toxin-induced conditioned gaping,rodent; 5 mg/kg,suppress toxin-induced conditioned gaping
C=C(C)[C@@H]1CCC(C)=C[C@H]1c1c(O)cc(CCC)cc1O [CBDV],LiCl-induced conditioned gaping reactions relative to group VEH,Sprague-Dawley rats [1]; [5],marginally attenuated LiCl-induced gaping reactions
same,LiCl-induced conditioned gaping reactions relative to group VEH,"Sprague-Dawley rats [1]; 200 mg/kg i.p. 30 min before saccharin-LiCl pairing, 200 mg/kg",significantly attenuated the LiCl-induced gaping reactions; also recorded: statistically significant anti-nausea effect
"Cc1c(C(=O)NN2CCCCC2)nn(-c2ccc(Cl)cc2Cl)c1-c1ccc(Cl)cc1 [SR, rimonabant]","conditioned gaping, 20 mg/kg compared with 10 mg/kg","Sprague-Dawley rats [2]; rat, in vivo",marginally more gaping
same,LiCl-induced conditioned gaping reactions relative to group VEH,Sprague-Dawley rats [1]; [5],potentiated LiCl-induced gaping reactions
same,potentiation of the nausea produced by LiCl (potentiated gaping),"rodent; 2.5 mg/kg, sub-threshold for nausea on its own, pre-treatment prior to saccharin-LiCl pairing, drug-free test 72 hours after conditioning",potentiated the nausea produced by LiCl
